Tests used:
[1] = tested on: oilseed rape (Brassica napus); test: Test C preemergence; assay type: in vivo; conditions: Brassica napus, pre-emergence, preemergence, scale 0 to 100, read-out: Plant response rating, Oilseed Rape
Outline: (§1)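 Seeded loam-sand soil (preemergence) or young potted plants of 2-18 cm (postemergence) received test chemical formulated with surfactant in a non-phytotoxic solvent. Pots were kept in the greenhouse for 13-15 days before a visual 0-100 control rating relative to controls.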

[2] = tested on: waterhemp (common waterhemp, Amaranthus rudis); test: Test C preemergence; assay type: in vivo; conditions: Amaranthus tuberculatus, pre-emergence, preemergence, scale 0 to 100, read-out: Plant response rating, Waterhemp
Outline: as §1

[3] = tested on: galium (catchweed bedstraw, Galium aparine); test: Test C preemergence; assay type: in vivo; conditions: Galium, pre-emergence, 336 h, preemergence, scale 0 to 100, read-out: Plant response rating, Galium
Outline: as §1

[4] = tested on: morningglory (Ipomoea coccinea); test: Test C preemergence; assay type: in vivo; conditions: Ipomoea, pre-emergence, 336 h, preemergence, scale 0 to 100, read-out: Plant response rating, Morningglory
Outline: as §1

[5] = tested on: chickweed (common chickweed, Stellaria media); test: Test C postemergence; assay type: in vivo; conditions: Stellaria media, post-emergence, Postemergence, scale 0 to 100, read-out: Plant response rating, Chickweed
Outline: as §1

soybean (Glycine max) = test: Test C postemergence; assay type: in vivo; conditions: Glycine max, post-emergence, Postemergence, scale 0 to 100, read-out: Plant response rating, Soybean
Outline: as §1

[6] = tested on: barnyardgrass (Echinochloa crus-galli); test: Test C postemergence; assay type: in vivo; conditions: Echinochloa crus-galli, post-emergence, Postemergence, scale 0 to 100, read-out: Plant response rating, Barnyardgrass
Outline: as §1

[7] = tested on: yellow nutsedge (Cyperus esculentus); test: Test C postemergence; assay type: in vivo; conditions: Cyperus, post-emergence, 336 h, Postemergence, scale 0 to 100, read-out: Plant response rating, Nutsedge, Yellow
Outline: as §1

[8] = tested on: lambsquarters (Chenopodium album); test: Test C postemergence; assay type: in vivo; conditions: Chenopodium album, post-emergence, 336 h, Postemergence, scale 0 to 100, read-out: Plant response rating, Lambsquarters
Outline: as §1

corn (Zea mays) = test: Test C postemergence; assay type: in vivo; conditions: Zea mays, post-emergence, 336 h, Postemergence, scale 0 to 100
Outline: as §1

[9] = tested on: large (Lg) crabgrass (Digitaria sanguinalis); test: Test C postemergence; assay type: in vivo; conditions: Digitaria sanguinalis, post-emergence, 336 h, Postemergence, scale 0 to 100, read-out: Plant response rating, Crabgrass, Large
Outline: as §1

[10] = tested on: oilseed rape (Brassica napus); test: Test C postemergence; assay type: in vivo; conditions: Brassica napus, post-emergence, Postemergence, scale 0 to 100, read-out: Plant response rating, Oilseed Rape
Outline: as §1

[11] = tested on: Italian ryegrass (Lolium multiflorum); test: Test C postemergence; assay type: in vivo; conditions: Lolium multiflorum, post-emergence, 336 h, Postemergence, scale 0 to 100, read-out: Plant response rating, Ryegrass, Italian
Outline: as §1

[12] = tested on: pigweed (Amaranthus retroflexus); test: Test C postemergence; assay type: in vivo; conditions: Amaranthus retroflexus, post-emergence, 336 h, Postemergence, scale 0 to 100, read-out: Plant response rating, Pigweed
Outline: as §1

[13] = tested on: johnsongrass (Sorghum halepense); test: Test C postemergence; assay type: in vivo; conditions: Sorghum halepense, post-emergence, 336 h, Postemergence, scale 0 to 100, read-out: Plant response rating, Johnsongrass
Outline: as §1

[14] = tested on: blackgrass (Alopecurus myosuroides); test: Test C postemergence; assay type: in vivo; conditions: Alopecurus myosuroides, post-emergence, 336 h, Postemergence, scale 0 to 100, read-out: Plant response rating, Blackgrass
Outline: as §1

[15] = tested on: waterhemp (common waterhemp, Amaranthus rudis); test: Test C postemergence; assay type: in vivo; conditions: Amaranthus tuberculatus, post-emergence, Postemergence, scale 0 to 100, read-out: Plant response rating, Waterhemp
Outline: as §1

kochia (Kochia scoparia) = test: Test C postemergence; assay type: in vivo; conditions: Bassia scoparia, post-emergence, Postemergence, scale 0 to 100, read-out: Plant response rating, Kochia
Outline: as §1

[16] = tested on: winter wheat (Triticum aestivum); test: Test C postemergence; assay type: in vivo; conditions: Triticum aestivum, post-emergence, 336 h, Postemergence, scale 0 to 100, read-out: Plant response rating, Wheat
Outline: as §1

wild oat (Avena fatua) = test: Test C postemergence; assay type: in vivo; conditions: Avena fatua, post-emergence, Postemergence, scale 0 to 100, read-out: Plant response rating, Oat, Wild
Outline: as §1

[17] = tested on: velvetleaf (Abutilon theophrasti); test: Test C postemergence; assay type: in vivo; conditions: Abutilon theophrasti, post-emergence, Postemergence, scale 0 to 100, read-out: Plant response rating, Velvetleaf
Outline: as §1

[18] = tested on: ragweed (common ragweed, Ambrosia elatior); test: Test C postemergence; assay type: in vivo; conditions: Ambrosia artemisiifolia, post-emergence, 336 h, Postemergence, scale 0 to 100, read-out: Plant response rating, Ragweed
Outline: as §1

Work on Clc1cnc(Oc2cccc(Cl)c2Oc2ncc(Br)cn2)nc1 [Compound 17, 5-bromo-2-[2-chloro-6-[(5-chloro-2-pyrimidinyl)oxy]phenoxy]pyrimidine] yielded a melting point of 166 to 169 °C, a plant injury at 31 g/ha ([1]; 31 g ai/ha) of 85% and a plant injury at 62 g/ha ([1]; 62 g ai/ha) of 90%. For the same compound, the plant injury at 125 g/ha ([1]; 125 g ai/ha) was 100%, the plant injury at 250 g/ha ([1]; 250 g ai/ha) was 98% and the pest or weed control at 31 g/ha ([2]; 31 g ai/ha) was 100%. It also gave a pest or weed control at 62 g/ha ([2]; 62 g ai/ha) of 100%, a pest or weed control at 125 g/ha ([2]; 125 g ai/ha) of 100% and a pest or weed control at 250 g/ha ([2]; 250 g ai/ha) of 100%. For the same compound, the pest or weed control at 31 g/ha ([3]; 31 g ai/ha) was 90%, the pest or weed control at 62 g/ha ([3]; 62 g ai/ha) was 98% and the pest or weed control at 125 g/ha ([3]; 125 g ai/ha) was 100%. The pest or weed control at 31 g/ha ([4]; 31 g ai/ha) was 40%, the pest or weed control at 62 g/ha ([4]; 62 g ai/ha) was 60% and the pest or weed control at 125 g/ha ([4]; 125 g ai/ha) was 98%. The pest or weed control at 31 g/ha ([5]; 31 g ai/ha) was 40%, the pest or weed control at 62 g/ha ([5]; 62 g ai/ha) was 70% and the pest or weed control at 125 g/ha ([5]; 125 g ai/ha) was 60%. The pest or weed control at 250 g/ha ([5]; 250 g ai/ha) was 85%, the plant injury at 31 g/ha (soybean (Glycine max); 31 g ai/ha) was 55% and the plant injury at 62 g/ha (soybean (Glycine max); 62 g ai/ha) was 80%. For the same compound, the plant injury at 125 g/ha (soybean (Glycine max); 125 g ai/ha) was 90%, the plant injury at 250 g/ha (soybean (Glycine max); 250 g ai/ha) was 90% and the pest or weed control at 31 g/ha ([6]; 31 g ai/ha) was 5%. The pest or weed control at 62 g/ha ([6]; 62 g ai/ha) was 5%, the pest or weed control at 125 g/ha ([6]; 125 g ai/ha) was 10% and the pest or weed control at 250 g/ha ([6]; 250 g ai/ha) was 10%. For the same compound, the pest or weed control at 31 g/ha ([7]; 31 g ai/ha) was 5%, the pest or weed control at 62 g/ha ([7]; 62 g ai/ha) was 5% and the pest or weed control at 125 g/ha ([7]; 125 g ai/ha) was 5%. The pest or weed control at 250 g/ha ([7]; 250 g ai/ha) was 20%, the pest or weed control at 31 g/ha ([8]; 31 g ai/ha) was 80% and the pest or weed control at 62 g/ha ([8]; 62 g ai/ha) was 70%. The pest or weed control at 125 g/ha ([8]; 125 g ai/ha) was 90%, the pest or weed control at 250 g/ha ([8]; 250 g ai/ha) was 95% and the Corn plant response rating (crop injury, 0 = no effect, 100 = complete kill) at 31 g/ha (corn (Zea mays); 31 g ai/ha) was 5%. The Corn plant response rating (crop injury, 0 = no effect, 100 = complete kill) at 62 g/ha (corn (Zea mays); 62 g ai/ha) was 20%, the Corn plant response rating (crop injury, 0 = no effect, 100 = complete kill) at 125 g/ha (corn (Zea mays); 125 g ai/ha) was 20% and the Corn plant response rating (crop injury, 0 = no effect, 100 = complete kill) at 250 g/ha (corn (Zea mays); 250 g ai/ha) was 15%. It also gave a pest or weed control at 31 g/ha ([9]; 31 g ai/ha) of 5%, a pest or weed control at 62 g/ha ([9]; 62 g ai/ha) of 5% and a pest or weed control at 125 g/ha ([9]; 125 g ai/ha) of 10%. It also gave a pest or weed control at 250 g/ha ([9]; 250 g ai/ha) of 10%, a plant injury at 31 g/ha ([10]; 31 g ai/ha) of 50% and a plant injury at 62 g/ha ([10]; 62 g ai/ha) of 50%. The plant injury at 125 g/ha ([10]; 125 g ai/ha) was 80%, the plant injury at 250 g/ha ([10]; 250 g ai/ha) was 40% and the pest or weed control at 31 g/ha ([11]; 31 g ai/ha) was 0%. For the same compound, the pest or weed control at 62 g/ha ([11]; 62 g ai/ha) was 0%, the pest or weed control at 125 g/ha ([11]; 125 g ai/ha) was 5% and the pest or weed control at 250 g/ha ([11]; 250 g ai/ha) was 15%. It also gave a pest or weed control at 31 g/ha ([12]; 31 g ai/ha) of 90%, a pest or weed control at 62 g/ha ([12]; 62 g ai/ha) of 95% and a pest or weed control at 125 g/ha ([12]; 125 g ai/ha) of 98%. For the same compound, the pest or weed control at 250 g/ha ([12]; 250 g ai/ha) was 98%, the pest or weed control at 31 g/ha ([13]; 31 g ai/ha) was 5% and the pest or weed control at 62 g/ha ([13]; 62 g ai/ha) was 5%. The pest or weed control at 125 g/ha ([13]; 125 g ai/ha) was 5%, the pest or weed control at 250 g/ha ([13]; 250 g ai/ha) was 10% and the pest or weed control at 31 g/ha ([14]; 31 g ai/ha) was 5%. The pest or weed control at 62 g/ha ([14]; 62 g ai/ha) was 5%, the pest or weed control at 125 g/ha ([14]; 125 g ai/ha) was 15% and the pest or weed control at 250 g/ha ([14]; 250 g ai/ha) was 15%. The pest or weed control at 31 g/ha ([15]; 31 g ai/ha) was 90%, the pest or weed control at 62 g/ha ([15]; 62 g ai/ha) was 95% and the pest or weed control at 125 g/ha ([15]; 125 g ai/ha) was 95%. The pest or weed control at 250 g/ha ([15]; 250 g ai/ha) was 98%, the pest or weed control at 31 g/ha (kochia (Kochia scoparia); 31 g ai/ha) was 90% and the pest or weed control at 62 g/ha (kochia (Kochia scoparia); 62 g ai/ha) was 90%. It also gave a pest or weed control at 125 g/ha (kochia (Kochia scoparia); 125 g ai/ha) of 95%, a pest or weed control at 250 g/ha (kochia (Kochia scoparia); 250 g ai/ha) of 95% and a plant injury at 31 g/ha ([16]; 31 g ai/ha) of 0%. The plant injury at 62 g/ha ([16]; 62 g ai/ha) was 0%, the plant injury at 125 g/ha ([16]; 125 g ai/ha) was 0% and the plant injury at 250 g/ha ([16]; 250 g ai/ha) was 0%. The pest or weed control at 31 g/ha (wild oat (Avena fatua); 31 g ai/ha) was 0%, the pest or weed control at 62 g/ha (wild oat (Avena fatua); 62 g ai/ha) was 0% and the pest or weed control at 125 g/ha (wild oat (Avena fatua); 125 g ai/ha) was 5%. For the same compound, the pest or weed control at 250 g/ha (wild oat (Avena fatua); 250 g ai/ha) was 15%, the pest or weed control at 31 g/ha ([17]; 31 g ai/ha) was 30% and the pest or weed control at 62 g/ha ([17]; 62 g ai/ha) was 35%. It also gave a pest or weed control at 125 g/ha ([17]; 125 g ai/ha) of 40%, a pest or weed control at 250 g/ha ([17]; 250 g ai/ha) of 70% and a pest or weed control at 31 g/ha ([18]; 31 g ai/ha) of 50%. The pest or weed control at 62 g/ha ([18]; 62 g ai/ha) was 45%, the pest or weed control at 125 g/ha ([18]; 125 g ai/ha) was 60% and the pest or weed control at 250 g/ha ([18]; 250 g ai/ha) was 55%.

Reference: patent US20170190671A1, “BIS(ARYL)CATECHOL DERIVATIVES AS HERBICIDES” (E I DU PONT DE NEMOURS AND COMPANY, priority 2014, published 2017)
